Assay results taken from article PMC7377239, “Cardiovascular Effects of Polychlorinated Biphenyls and Their Major Metabolites” (Environmental Health Perspectives, 2020).
Where two headings read alike, the source gives them in different places.

Test system: HUVECs
Assay: Tube formation (tubulogenesis) assay in HUVECs, 18 h
Format: cell-based, human
Conditions: for huvec.tta.18hr / huvec.tlps.18hr / huvec.mtl.18hr / huvec.ttl.18hr: 0.00 µM = 100.00; for minimal effective concentration / activity at 0.01 µM / activity at 0.1 µM / activity at 1 µM / activity at 10 µM / activity at 100 µM: Homo sapiens, HUVEC, 18 h
Summary of the method: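 HUVECs (passage 1–5) seeded on reduced-growth-factor basement membrane and exposed to compounds overnight at 37°C, 5% CO2, in 2× maintenance medium with 12.5 ng/mL VEGF; 0.5% DMSO vehicle. Calcein AM-stained tube networks imaged and analysed; vehicle-normalized readouts fit to four-parameter logistic, POD set at one SD of vehicle means.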

[1] = HUVECs tube formation, concentration 0.01 µM
[2] = HUVECs tube formation, concentration 0.10 µM
[3] = HUVECs tube formation, concentration 100.00 µM
[4] = HUVECs tube formation, concentration 1.00 µM
[5] = HUVECs tube formation, concentration 10.00 µM

Q: Which huvec.tta.18hr [1] does the source give for `Clc1ccc(Cl)c(-c2c(Cl)ccc(Cl)c2Cl)c1Cl` [(+)-PCB 136, 2,2′,3,3′,6,6′-hexachlorobiphenyl] here?
A: 108.86

Q: And the huvec.tlps.18hr [2]?
A: 71.77

Q: What about the huvec.tta.18hr [3] of the same compound?
A: 92.04

Q: What about the minimal effective concentration (tube formation mtl, read-out: POD huvec.mtl.18hr) of the same compound?
A: 13.4 µM

Q: What about the minimal effective concentration (tube formation tta, read-out: POD huvec.tta.18hr) of the same compound?
A: 100 µM

Q: What about the minimal effective concentration (tube formation ttl, read-out: POD huvec.ttl.18hr) of the same compound?
A: 100 µM

Q: And the minimal effective concentration (HUVECs tube formation, MAX 100.00, read-out: huvec.mtl.18hr POD)?
A: 13.4 µM

Q: What about the minimal effective concentration (HUVECs tube formation, MAX 100.00, read-out: huvec.tta.18hr POD) of the same compound?
A: 100 µM

Q: And the minimal effective concentration (HUVECs tube formation, MAX 100.00, read-out: huvec.ttl.18hr POD)?
A: 100 µM

Q: What about the activity at 0.01 µM (HUVECs tube formation, concentration 0.01 µM, 0.00 µM = 100.00, read-out: huvec.mtl.18hr) of the same compound?
A: 92.2%

Q: What about the activity at 0.01 µM (HUVECs tube formation, concentration 0.01 µM, 0.00 µM = 100.00, read-out: huvec.tlps.18hr) of the same compound?
A: 82.7%

Q: What about the activity at 0.01 µM (HUVECs tube formation, concentration 0.01 µM, 0.00 µM = 100.00, read-out: huvec.ttl.18hr) of the same compound?
A: 105%

Q: And the activity at 0.1 µM (HUVECs tube formation, concentration 0.10 µM, 0.00 µM = 100.00, read-out: huvec.mtl.18hr)?
A: 93.1%

Q: What about the activity at 0.1 µM (HUVECs tube formation, concentration 0.10 µM, 0.00 µM = 100.00, read-out: huvec.tta.18hr) of the same compound?
A: 107%

Q: What about the activity at 0.1 µM (HUVECs tube formation, concentration 0.10 µM, 0.00 µM = 100.00, read-out: huvec.ttl.18hr) of the same compound?
A: 105%

Q: What about the activity at 1 µM (HUVECs tube formation, concentration 1.00 µM, 0.00 µM = 100.00, read-out: huvec.mtl.18hr) of the same compound?
A: 96.3%

Q: And the activity at 1 µM (HUVECs tube formation, concentration 1.00 µM, 0.00 µM = 100.00, read-out: huvec.tlps.18hr)?
A: 98.7%

Q: What about the activity at 1 µM (HUVECs tube formation, concentration 1.00 µM, 0.00 µM = 100.00, read-out: huvec.tta.18hr) of the same compound?
A: 102%

Q: And the activity at 1 µM (HUVECs tube formation, concentration 1.00 µM, 0.00 µM = 100.00, read-out: huvec.ttl.18hr)?
A: 99.6%

Q: And the activity at 10 µM (HUVECs tube formation, concentration 10.00 µM, 0.00 µM = 100.00, read-out: huvec.mtl.18hr)?
A: 92.5%

Q: What about the activity at 10 µM (HUVECs tube formation, concentration 10.00 µM, 0.00 µM = 100.00, read-out: huvec.tlps.18hr) of the same compound?
A: 100%

Q: What about the activity at 10 µM (HUVECs tube formation, concentration 10.00 µM, 0.00 µM = 100.00, read-out: huvec.tta.18hr) of the same compound?
A: 112%

Q: What about the activity at 10 µM (HUVECs tube formation, concentration 10.00 µM, 0.00 µM = 100.00, read-out: huvec.ttl.18hr) of the same compound?
A: 104%

Q: And the activity at 100 µM (HUVECs tube formation, concentration 100.00 µM, 0.00 µM = 100.00, read-out: huvec.mtl.18hr)?
A: 64.5%

Q: What about the activity at 100 µM (HUVECs tube formation, concentration 100.00 µM, 0.00 µM = 100.00, read-out: huvec.tlps.18hr) of the same compound?
A: 73.3%

Q: And the activity at 100 µM (HUVECs tube formation, concentration 100.00 µM, 0.00 µM = 100.00, read-out: huvec.ttl.18hr)?
A: 83.9%

Q: With `Clc1ccc(Cl)c(-c2c(Cl)ccc(Cl)c2Cl)c1Cl` [(-)-PCB 136, 2,2′,3,3′,6,6′-hexachlorobiphenyl] as the compound, how does the huvec.mtl.18hr [1] read?
A: 89.52

Q: And the huvec.tlps.18hr [1]?
A: 87.45

Q: And the huvec.tta.18hr [1]?
A: 86.96

Q: And the huvec.ttl.18hr [1]?
A: 85.21

Q: And the huvec.mtl.18hr [2]?
A: 105.15

Q: What about the huvec.tlps.18hr [2] of the same compound?
A: 104.95

Q: What about the huvec.tta.18hr [2] of the same compound?
A: 96.50

Q: What about the huvec.ttl.18hr [2] of the same compound?
A: 89.39

Q: What about the huvec.mtl.18hr [4] of the same compound?
A: 101.33

Q: And the huvec.tlps.18hr [4]?
A: 99.50

Q: And the huvec.tta.18hr [4]?
A: 114.69

Q: What about the huvec.ttl.18hr [4] of the same compound?
A: 103.47

Q: What about the huvec.mtl.18hr [5] of the same compound?
A: 94.11

Q: And the huvec.tlps.18hr [5]?
A: 92.84

Q: What about the huvec.tta.18hr [5] of the same compound?
A: 112.35

Q: And the huvec.ttl.18hr [5]?
A: 101.40

Q: What about the huvec.mtl.18hr [3] of the same compound?
A: 75.12

Q: What about the huvec.tlps.18hr [3] of the same compound?
A: 53.61

Q: And the huvec.tta.18hr [3]?
A: 117.52

Q: What about the huvec.ttl.18hr [3] of the same compound?
A: 95.13
